In patent US7267821B2, “Binding member which binds to both Lewisy and Lewisb haptens, and its use for treating cancer” (Scancell Limited, priority 2001, dated 2007):

Experiments:
Assay type in all cases: cell-based
C170 cells = test: 5FU and SC101/29, crystal violet cell number after 5 days; details: 5 Fluorouracil 0.25 μg/ml alone
Method: 3×10^3 C170 cells were plated into microtitre plates and left overnight to adhere. 5FU was added to a final concentrations of 0.25 and 0.5 μg/ml .SC101/29 antibody was also added at concentration of 1-50 μg/ml. […] However, in combination with a non-toxic dose of 5 Fluorouracil (0.25 μg/ml) there was a 70% reduction in cell growth.

Colorectal C170 cells = test: Cyto Death ELISA for fragmented DNA, with or without cisplatin; details: cisplatin at 3 μg/ml alone
Method: The cultures were then washed once and incubated in goat anti-mouse antibody at 100 μg/ml for 30 minutes at room temperature. The cultures were then re-washed and left over night in culture medium with or without cisplatin. The following day the cultures were washed, lysed and tested for the presence of fragmented DNA by a Cyto Death ELISA (Roche). The results were recorded by optical Density measurements at 405 nm.

[1] = tested on: C170 colorectal tumour cells; test: Cisplatin then SC101/29, crystal violet viable cells after 4 days; set-up: dose or concentration left out as unconfirmed; details: cisplatin alone
Method: […] The cells were left for 4 days when the number of viable cells was determined by crystal violet staining and optical density reading at 550 nm. […] The combination of drug and antibody are synergistic, inducing a 50% reduction in cell growth.

O=c1[nH]cc(F)c(=O)[nH]1 [5 Fluorouracil]
toxicity of dose to C170 cells (C170 cells): non-toxic

N.N.[Cl][Pt][Cl] [cisplatin]
apoptosis (fragmented DNA) (Colorectal C170 cells): induces apoptosis
inhibition of C170 cell growth [1]: 10%
